Measurements taken from patent US20240043427A1 (Gilead Sciences, Inc., priority 2020, published 2024).

How the values were obtained:
[1] = target: T1, CD73 (Homo sapiens (Human), UniProt P21589); assay: MDA-MB-231 Cell Based CD73 Activity Assay (DMEM); settings: MDA-MB-231-GFP cells, DMEM medium with 10% human plasma, 200 uM AMP
[2] = target: T1, CD73; assay type: biochemical; settings: 1 mM NaH2PO4 in enzyme buffer, CD73 0.3 nM, AMP 15 uM
Experimental: Compound serial dilutions were pre-spotted into Thermo Nunc assay plate. 50 uL CD73 enzyme buffer (CD73 purchased from R&D system=0.6 nM, 25 mM Tris, pH 7.4, 5 mM MgCl2, 1 mM NaH2PO4) was added into the assay plate and incubate for 15 mins. […] After incubation for 60 mins, the supernatant (20 uL) was transferred into 384-well NUNC plate pre-filled with 60 uL Quench buffer (80% organic and 20% water+0.1% FA) with internal standard. The plate was spun down at 4500 rpm for 20 mins, then 20 uL of supernatant was transferred to another Nunc plate prefilled with 80 uL of water. The samples were analyzed using Rapid fire.

T1 sequence (P21589 27-574): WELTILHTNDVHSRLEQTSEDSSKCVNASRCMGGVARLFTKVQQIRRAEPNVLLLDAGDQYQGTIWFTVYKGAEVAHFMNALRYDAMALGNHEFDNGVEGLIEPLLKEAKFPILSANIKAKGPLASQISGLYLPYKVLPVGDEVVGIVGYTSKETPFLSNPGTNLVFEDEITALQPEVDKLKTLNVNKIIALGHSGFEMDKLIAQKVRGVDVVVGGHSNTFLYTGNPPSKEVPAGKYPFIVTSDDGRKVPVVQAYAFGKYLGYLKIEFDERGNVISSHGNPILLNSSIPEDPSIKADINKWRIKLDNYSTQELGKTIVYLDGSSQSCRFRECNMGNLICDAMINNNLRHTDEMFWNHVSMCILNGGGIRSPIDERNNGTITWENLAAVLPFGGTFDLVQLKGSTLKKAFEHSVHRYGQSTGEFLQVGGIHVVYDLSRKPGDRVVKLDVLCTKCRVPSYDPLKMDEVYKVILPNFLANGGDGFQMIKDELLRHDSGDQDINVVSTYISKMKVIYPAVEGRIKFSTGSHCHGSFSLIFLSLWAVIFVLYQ

EC50 [1] [nM] | IC50 [2] [nM] | Compound
1360 | 194 | O=c1[nH]cc(-c2cc(N3CC4(CC(C(F)F)C4)C3)c3nccn3n2)c(=O)[nH]1 [Example 448, 5-(8-(6-(difluoromethyl)-2-azaspiro[3.3]heptan-2-yl)imidazo[1,2-b]pyridazin-6-yl)pyrimidine-2,4(1H,3H)-dione]
473 | 132 | O=c1[nH]cc(-c2cc(N3CC4(C3)CC(F)(F)CO4)c3nccn3n2)c(=O)[nH]1 [Example 449, 5-(8-(7,7-difluoro-5-oxa-2-azaspiro[3.4]octan-2-yl)imidazo[1,2-b]pyridazin-6-yl)pyrimidine-2,4(1H,3H)-dione]
250 | 230 | O=c1[nH]cc(-c2cc(N3CC(Cc4ccc(F)cc4F)C3)c3nccn3n2)c(=O)[nH]1 [Example 450, 5-(8-(3-(2,4-difluorobenzyl)azetidin-1-yl)imidazo[1,2-b]pyridazin-6-yl)pyrimidine-2,4(1H,3H)-dione]
167 | 67.6 | O=c1[nH]cc(-c2cc(N3CC4CCCCC43)c3nccn3n2)c(=O)[nH]1 (centres unmarked) [Example 451, 5-(8-(7-azabicyclo[4.2.0]octan-7-yl)imidazo[1,2-b]pyridazin-6-yl)pyrimidine-2,4(1H,3H)-dione]
50.6 | 28.7 | O=c1[nH]cc(-c2cc(N3CC[C@H](CC(F)F)C3)c3nccn3n2)c(=O)[nH]1 [Example 454, (R)-5-(8-(3-(2,2-difluoroethyl)pyrrolidin-1-yl)imidazo[1,2-b]pyridazin-6-yl)pyrimidine-2,4(1H,3H)-dione]
46 | 14.9 | O=c1[nH]cc(-c2cc(N3CC(F)(C(F)(F)F)C3)c3ncc(Cl)n3n2)c(=O)[nH]1 [Example 455, 5-(3-chloro-8-(3-fluoro-3-(trifluoromethyl)azetidin-1-yl)imidazo[1,2-b]pyridazin-6-yl)pyrimidine-2,4(1H,3H)-dione]
0.15 | 0.53 | O=c1[nH]cc(-c2cc([C@H]3C[C@@H]3c3ccc4cnn(CC(F)(F)F)c4c3)n3nccc3n2)c(=O)[nH]1 [Example 456, 5-(7-((1S,2S)-2-(1-(2,2,2-trifluoroethyl)-1H-indazol-6-yl)cyclopropyl)pyrazolo[1,5-a]pyrimidin-5-yl)pyrimidine-2,4(1H,3H)-dione]
9.67 | 3.52 | CC(C)NC(=O)CCC(F)(F)COc1cc(-c2c[nH]c(=O)[nH]c2=O)nn2ccnc12 [Example 457, 5-((6-(2,4-dioxo-1,2,3,4-tetrahydropyrimidin-5-yl)imidazo[1,2-b]pyridazin-8-yl)oxy)-4,4-difluoro-N-isopropylpentanamide]
13.2 | 4.04 | O=C(CCC(F)(F)COc1cc(-c2c[nH]c(=O)[nH]c2=O)nn2ccnc12)NCC(F)(F)F [Example 458, 5-((6-(2,4-dioxo-1,2,3,4-tetrahydropyrimidin-5-yl)imidazo[1,2-b]pyridazin-8-yl)oxy)-4,4-difluoro-N-(2,2,2-trifluoroethyl)pentanamide]
0.38 | 0.75 | O=c1[nH]cc(-c2cc([C@H]3C[C@@H]3c3ccc4c(Cl)nn(CC(F)(F)F)c4c3)c3nccn3n2)c(=O)[nH]1 [Example 459, 5-(8-((1S,2S)-2-(3-chloro-1-(2,2,2-trifluoroethyl)-1H-indazol-6-yl)cyclopropyl)imidazo[1,2-b]pyridazin-6-yl)pyrimidine-2,4(1H,3H)-dione]
0.38 | 0.46 | O=c1[nH]cc(-c2cc([C@H]3C[C@@H]3c3cc(Cl)c4cnn(CC(F)(F)F)c4c3)c3nccn3n2)c(=O)[nH]1 [Example 460, 5-(8-((1S,2S)-2-(4-chloro-1-(2,2,2-trifluoroethyl)-1H-indazol-6-yl)cyclopropyl)imidazo[1,2-b]pyridazin-6-yl)pyrimidine-2,4(1H,3H)-dione]
3.24 | 0.86 | N#Cc1ccc([C@H]2C[C@@H]2c2cc(-c3c[nH]c(=O)[nH]c3=O)nn3ccnc23)cc1 [Example 465, 4-((1S,2S)-2-(6-(2,4-dioxo-1,2,3,4-tetrahydropyrimidin-5-yl)imidazo[1,2-b]pyridazin-8-yl)cyclopropyl)benzonitrile]
3.86 | 0.85 | N#Cc1ccc([C@H]2C[C@@H]2c2cc(-c3c[nH]c(=O)[nH]c3=O)nn3ccnc23)cc1F [Example 467, 4-((1S,2S)-2-(6-(2,4-dioxo-1,2,3,4-tetrahydropyrimidin-5-yl)imidazo[1,2-b]pyridazin-8-yl)cyclopropyl)-2-fluorobenzonitrile]
15 | 1.73 | O=c1[nH]cc(-c2cc([C@H]3C[C@@H]3c3ccc(F)cc3F)n3nccc3n2)c(=O)[nH]1 [Example 469, 5-(7-((1S,2S)-2-(2,4-difluorophenyl)cyclopropyl)pyrazolo[1,5-a]pyrimidin-5-yl)pyrimidine-2,4(1H,3H)-dione]
0.13 | 0.23 | O=c1[nH]cc(-c2cc([C@H]3C[C@@H]3c3ccc4cnn(CC(F)(F)F)c4c3)c3ncc(Cl)n3n2)c(=O)[nH]1 [Example 470, 5-(3-chloro-8-((1S,2S)-2-(1-(2,2,2-trifluoroethyl)-1H-indazol-6-yl)cyclopropyl)imidazo[1,2-b]pyridazin-6-yl)pyrimidine-2,4(1H,3H)-dione]
58.6 | 15.6 | O=c1[nH]cc(-c2cc(N3C[C@@H](F)[C@@H](F)C3)n3ncnc3n2)c(=O)[nH]1 [Example 472, 5-(7-((3R,4S)-3,4-difluoropyrrolidin-1-yl)-[1,2,4]triazolo[1,5-a]pyrimidin-5-yl)pyrimidine-2,4(1H,3H)-dione]

EC50 [1] [nM] | IC50 [2] [nM] | Compound
18.3 | 5.76 | COC1CN(c2cc(-c3c[nH]c(=O)[nH]c3=O)nn3ccnc23)CC1(F)F (centres unmarked) [Example 473, 5-(8-(3,3-difluoro-4-methoxypyrrolidin-1-yl)imidazo[1,2-b]pyridazin-6-yl)pyrimidine-2,4(1H,3H)-dione]
26.7 | 7.47 | COC1CN(c2cc(-c3c[nH]c(=O)[nH]c3=O)nn3c(F)cnc23)CC1(F)F (centres unmarked) [Example 474, 5-(8-(3,3-difluoro-4-methoxypyrrolidin-1-yl)-3-fluoroimidazo[1,2-b]pyridazin-6-yl)pyrimidine-2,4(1H,3H)-dione]
932 | 32.1 | CC(C)Cc1cn2nc(-c3c[nH]c(=O)[nH]c3=O)cc(N3CC(F)(F)C4(CC4)C3)c2n1 [Example 475, 5-(8-(7,7-difluoro-5-azaspiro[2.4]heptan-5-yl)-2-isobutylimidazo[1,2-b]pyridazin-6-yl)pyrimidine-2,4(1H,3H)-dione]
32.2 | 38.8 | O=c1[nH]cc(-c2cc(N3C[C@H]4CC[C@H]4C3)c3nccn3n2)c(=O)[nH]1 [Example 476, 5-(8-(cis-3-azabicyclo[3.2.0]heptan-3-yl)imidazo[1,2-b]pyridazin-6-yl)pyrimidine-2,4(1H,3H)-dione]
952 | > 250 | COC[C@@H]1CCCN1c1cc(-c2c[nH]c(=O)[nH]c2=O)nn2ccnc12 [Example 477, (S)-5-(8-(2-(methoxymethyl)pyrrolidin-1-yl)imidazo[1,2-b]pyridazin-6-yl)pyrimidine-2,4(1H,3H)-dione]
53.7 | 32.1 | O=c1[nH]cc(-c2cc(N3CC4CCC4(F)C3)c3nccn3n2)c(=O)[nH]1 (centres unmarked) [Example 478, 5-(8-(1-fluoro-3-azabicyclo[3.2.0]heptan-3-yl)imidazo[1,2-b]pyridazin-6-yl)pyrimidine-2,4(1H,3H)-dione]
9.06 | 2.6 | CC1CN(c2cc(-c3c[nH]c(=O)[nH]c3=O)nn3ccnc23)CC1(F)F (centres unmarked) [Example 479, 5-(8-(3,3-difluoro-4-methylpyrrolidin-1-yl)imidazo[1,2-b]pyridazin-6-yl)pyrimidine-2,4(1H,3H)-dione]
1920 | > 250 | O=C1CCN(c2cc(-c3c[nH]c(=O)[nH]c3=O)nn3ccnc23)N1 [Example 480, 5-(8-(3-oxopyrazolidin-1-yl)imidazo[1,2-b]pyridazin-6-yl)pyrimidine-2,4(1H,3H)-dione]
44.4 | 26.1 | O=c1[nH]cc(-c2cc(N3CC(F)(F)C3)c3nccn3n2)c(=O)[nH]1 [Example 481, 5-(8-(3,3-difluoroazetidin-1-yl)imidazo[1,2-b]pyridazin-6-yl)pyrimidine-2,4(1H,3H)-dione]
1230 | > 250 | O=C1CN(c2cc(-c3c[nH]c(=O)[nH]c3=O)nn3ccnc23)CCN1Cc1ccc(F)cc1 [Example 482, 5-(8-(4-(4-fluorobenzyl)-3-oxopiperazin-1-yl)imidazo[1,2-b]pyridazin-6-yl)pyrimidine-2,4(1H,3H)-dione]
566 | > 250 | O=c1[nH]cc(-c2cc(N3CCCCCC3)c3nccn3n2)c(=O)[nH]1 [Example 483, 5-(8-(azepan-1-yl)imidazo[1,2-b]pyridazin-6-yl)pyrimidine-2,4(1H,3H)-dione]
180 | 68.7 | CC1CCN(c2cc(-c3c[nH]c(=O)[nH]c3=O)nn3ccnc23)CCC1(F)F (centres unmarked) [Example 484, 5-(8-(4,4-difluoro-5-methylazepan-1-yl)imidazo[1,2-b]pyridazin-6-yl)pyrimidine-2,4(1H,3H)-dione]
700 | > 250 | CC(C)(O)CCNc1cc(-c2c[nH]c(=O)[nH]c2=O)nn2ccnc12 [Example 485, 5-(8-((3-hydroxy-3-methylbutyl)amino)imidazo[1,2-b]pyridazin-6-yl)pyrimidine-2,4(1H,3H)-dione]
1010 | > 250 | O=c1[nH]cc(-c2cc(NCCCc3ccccc3)c3nccn3n2)c(=O)[nH]1 [Example 486, 5-(8-((3-phenylpropyl)amino)imidazo[1,2-b]pyridazin-6-yl)pyrimidine-2,4(1H,3H)-dione]
81 | 27.9 | O=c1[nH]cc(-c2cc(NCCc3ccccc3)c3nccn3n2)c(=O)[nH]1 [Example 487, 5-(8-(phenethylamino)imidazo[1,2-b]pyridazin-6-yl)pyrimidine-2,4(1H,3H)-dione]
